Measured values from BindingDB's records for PubMed 35124530 (Tsinghua University, 2022).

Assay: Antagonist activity at CXCR4 receptor in human SUP-T1 cells assessed as reduction in SDF-1alpha-stimulated cell migration and measured by CellTiter-96 assay

Structure (SMILES): N=C(N)NCCC[C@H](NCc1ccccn1)C(=O)NCc1ccc(CNCCCNC2CCCCC2)cc1
- IC50: 236 nM
